The subject of series [1] is 4T1 mouse mammary carcinoma. Description: In vivo tumor growth, 4T1 mouse mammary carcinoma model. As to conditions: 25 mg/kg b.w. intraperitoneal. As for the experimental part:
The experiment was performed according to the pre-standardized protocol with minor modifications. To evaluate the in vivo anti-tumor efficacy of W-2b, healthy female Balb/c mice (25–30 g) were taken. Animals were randomized into three groups, and six animals were taken per group. For the tumor cells implantation, mouse mammary carcinoma 4T1 cells (1 × 10^6 per 200 μL) diluted in serum-free RPMI medium were injected subcutaneously into the mammary pad of each mouse around the second right mammary gland. A week after tumor cell implantation, when the palpable mammary tumors develop, mice were injected intraperitoneally with either vehicle (normal saline) or 5-FU (25 mg/kg/b.w.) or W-2b (25 mg/kg/b.w.) in each alternative day for two weeks. Tumor sizes were measured in each alternate day after tumor cell injection, and the body weight was recorded once in a week. Mice were sacrificed on the 15th day after treatment initiation, and tumors were dissected out carefully from the mammary pad area.

Series [2] concerns fR2 cells. The experiment in a line: MTT cell viability assay, fR2 normal breast epithelial cells. The format is cell-based, human. The following applies: 48 h, read-out: Cytotoxicity IC50, fR2. As for the experimental part:
(§1) The cell viability assay was performed according to the procedure previously described with minor modifications. Briefly, MCF7, HCT-116 and fR2 cells were plated in 96 well plates at a density of 5 × 10^3 cells per well and incubated overnight. […] MTT dye solution (2.5 mg/mL) was introduced to the cells in medium 4 h before the completion of the treatment period and the formed formazan crystals were solubilized with DMSO. Optical density was measured with the help of a UV-visible spectrophotometer coupled with microplate reader (TECAN, Infinite M200 Pro), the percent inhibition was calculated and IC50 values were determined with the help of GraphPad Prism software (GraphPad software Inc. CA, USA).
(§2) Data were expressed as the mean ± standard deviation of three independent experiments performed and analyzed by Student’s t-test. IC50 values were determined with the help of GraphPad Prism software Version 5.0 (GraphPad Software, Inc., USA) by taking the log of inhibitor vs. response. A 2-sided value of *P < 0.05 was considered significant in all cases.

Assay in series [3]: as above
The class given is cell-based, human. As to conditions: human, fR2 normal breast epithelial cells, read-out: Cytotoxicity IC50, fR2. Here is the method: as §1, §2

The subject of series [4] is MCF7 cells. Description: MTT cell viability assay, MCF7. As to conditions: read-out: Cytotoxicity IC50, MCF7. The class given is cell-based, human. As for the experimental part:
as §1, §2

Series [5] concerns MCF7 cells. The experiment in a line: Colony formation (clonogenic) assay, MCF7. The following applies: Homo sapiens, 120 h; MCF7, 1.0 µM, five days. The format is cell-based. As for the experimental part:
(§3) The experiment was carried out according to the standardized protocol with some modifications. MCF7 and HCT-116 cells were trypsinized properly, seeded in 6 well plates at a density of 1 × 10^3 cells/well and incubated overnight. Then treatment was given to the cells with vehicle, doxorubicin and various concentrations of W-2b for five days. Cells were then washed, fixed with 4% paraformaldehyde for 10 min, rewashed twice and stained with 0.25% crystal violet solution for 1 h. The wells containing the cells were then washed thoroughly with distilled water to remove any extra stains and then air dried overnight. The plate was then observed under an inverted microscope and colonies from three random fields were counted, averaged and photographed with NIKON camera (D3100) at 4x magnification.

The test system of series [6] is HCT-116 cells. Description: SA-β-gal activity assay, HCT-116. The following applies: HCT-116, sub-toxic concentrations, five days. The class given is cell-based, human. Here is the method:
(§4) The procedure was followed as described previously with some modifications. Briefly, MCF7 and HCT-116 cells (0.4 × 10^6 per well) were seeded in six-well plates and treated with indicated concentrations of W-2b along with WA, vehicle and positive control doxorubicin for five days. Cells were accordingly washed twice with PBS, fixed with 4% paraformaldehyde for 5 min, rinsed twice with PBS and incubated with freshly prepared staining solution (40 mM citric acid/Na phosphate buffer, 5 mM K4[Fe(CN)6] 3H2O, 5 mM K3[Fe(CN)6], 150 mM sodium chloride, 2 mM magnesium chloride and 1 mg/ml X-gal in distilled water, pH 6.0) for 48 h at 37 °C. Stained cells were thoroughly washed and air dried in dark. Cells were then observed under bright field microscope (NIKON) for the SA-β-gal positive cells and images were captured at 20x magnification.

Series [7] relates to HCT-116 cells. The experiment in a line: MTT cell viability assay, HCT-116. The format is cell-based, human. The following applies: read-out: Cytotoxicity IC50, HCT-116. As for the experimental part:
as §1, §2

Series [8] has as its system fR2 cells. The experiment in a line: SA-β-gal staining, fR2. The format is cell-based, human. As to conditions: fR2, sub-toxic doses 1–2 µM.
Series [9] concerns MCF7 cells. The experiment in a line: SA-β-gal activity assay, MCF7. The class given is cell-based, human. As to conditions: MCF7, sub-toxic concentrations, five days. Here is the method: as §4
The test system of series [10] is MCF7 cells. The experiment in a line: Flow cytometric cell cycle analysis (propidium iodide), MCF7. The format is cell-based, human. As to conditions: MCF7, 1.0 µM, 48 h; vehicle 13.03%. Here is the method: MCF7 cells were seeded at a density of 0.4 × 10^6 cells/well in 35 mm dishes and incubated overnight at 37 °C and 5% CO2. Next day, cells were treated with vehicle and W-2b at indicated concentrations for 48 h. They were then trypsinized, centrifuged at 2000 rpm for 3 min, washed twice with ice-cold PBS and fixed with ice-cold 70% ethanol (v/v) for 1 hour at 4 °C. Cells were then pelleted down at 2000 rpm for 3 min, washed with PBS and incubated first with 200 μg/ml of RNase A in PBS at 37 °C water bath for 90 min and then with 50 μg/mL of propidium iodide (PI) at room temperature for 30 min in dark. The samples were then analyzed by BD Accuri C6 flow cytometer (BD Biosciences).

For series [11], the system named is HCT-116 cells. The experiment in a line: Colony formation (clonogenic) assay, HCT-116. The class given is cell-based. As to conditions: Homo sapiens, 120 h; HCT-116, 1.5 µM, five days. Here is the method: as §3

Each structure is given as a SMILES string. Where two headings read alike, the source gives them in different places. A value given as a limit tells only on which side of the number the result lay.

Consider `CC1=C(CO)C(=O)OC(C(C)C2CCC3C4CC5OC56C(O)C5ON=C(c7ccc([N+](=O)[O-])cc7)C5C(=O)C6(C)C4CCC23C)C1` (stereo not drawn) [W-2b, 4-nitrophenyl-2-isoxazoline withaferin A], for which the “Inhibition in tumor volume” value in series [1] (each alternate day for two weeks, Balb/c mice) came out at 83.8%. The “Inhibition in tumor weight” value in series [1] (each alternate day for two weeks, vs normal saline group) is on record as 91.2%. The “Tolerability of treated animals” value in [1] (two weeks) is “remained healthy without any serious side effects or mortality”. The IC50 with fR2 cells [2] was determined as 35500 ± 6120 nM; in the series on MCF7 cells [4] (48 h), 705 ± 59 nM; in the series with MCF7 cells [4] (Homo sapiens, MCF7, 24 h, 24 h), 881 ± 52 nM; with MCF7 cells [4] (Homo sapiens, MCF7, 72 h, 72 h), 682 ± 75 nM; in the series with HCT-116 cells [7] (48 h), 1250 ± 156 nM; in the series with HCT-116 cells [7] (Homo sapiens, HCT-116, 24 h, 24 h), 1480 ± 129 nM. The IC50 in the series with HCT-116 cells [7] (Homo sapiens, HCT-116, 72 h, 72 h) was found to be 1030 ± 330 nM. The IC50 at 24 h in series [3] (24 h) worked out at 39700 ± 7300 nM. The concentration for half-maximal inhibition (IC50) at 72 h in [3] (72 h) worked out at 33900 ± 8230 nM. This compound also yielded an inhibition at 1 µM in the series with MCF7 cells [5] greater than 70%. In addition, the results for the SA-β-gal positive cells in the series with HCT-116 cells [6], in the series on fR2 cells [8] and in the series with MCF7 cells [9] were 53%, 15–19% and 58%, respectively. Besides, the “Cells in G2/M phase” value in the series on MCF7 cells [10] is 45.5%. The compound also yielded an inhibition at 1.5 µM in the series on HCT-116 cells [11] greater than 70%.

(Values after paper PMC5653814, “Regiospecific Synthesis of Ring A Fused Withaferin A Isoxazoline Analogues: Induction of Premature Senescence by W-2b in Proliferating Cancer Cells” (Scientific Reports, 2017).)
